Reference: patent US11026945B2, “Protein kinase RNA-like endoplasmic reticulum kinase (PERK) inhibitors for prevention and/or treatment of lung injury and/or inflammation” (THE TRUSTEES OF THE UNIVERSITY OF PENNSYLVANIA, priority 2016, dated 2021)
Read-outs that look alike come from different tables or passages of the source.

Legend:
rat model of VILI = test system: rat model of VILI
Protocol: To establish the feasibility of translating the in vitro findings to in vivo, a rat model of VILI was used. Animals were pretreated via oral gavage with either 30 mg/kg PI or its vehicle for 4 hours prior to the start of the experiment. Rats were ventilated with 20 ml/kg tidal volume via tracheostomy for 4 hours without positive end expiratory pressure (PEEP) or a recruitment maneuver to induce injury. The lung tissue of ventilated animals was compared to spontaneously breathing controls. […] To confirm these findings, immunofluorescence analysis of thin cut sections was performed using a Zeiss LSM 880 laser scanning confocal microscope (FIG. 19).
Groups of animals (Sprague-Drawly rats, 250 to 300 g weight purchased from Charles River Laboratories, N=150)) were pretreated with one time dose of 3, 10 and 30 mg/kg of PI (GSK2606414) or its vehicle (0.1% TWEEN 80 in 0.5% […]) via oral gavage 4 hours before the start of the experiment. Subsequently, animals were randomized in the following conditions: • 1. Non-ventilated controls pretreated with drug vehicle (C/VC). These animals were sacrificed 8 hours post gavage. • 2. Low tidal volume ventilation group pretreated with vehicle (LTV/VC). These animals were anesthetized 4 hours post gavage and ventilated via tracheostomy for 4 hours with 6 ml/kg tidal volume, 3-5 cmH2O PEEP and lungs were recruited with 30 cmH2O pressure of air hourly. Animals were sacrificed at the end of 4 hours ventilation. This group will served as a second control to assess lung injury parameters in an optimized ICU care situation. • 3. High tidal volume ventilation group pretreated with vehicle (HTV/VC). Animals were ventilated with 20 ml/kg tidal volume without PEEP or recruitment maneuver to induce lung injury and sacrificed at the end of mechanical ventilation period. • 4. Controls with PI treatment (C/PI). Animals were sacrificed after 8 hours of PI treatment. • 5. High tidal volume mechanical ventilation with PI treatment (HTV/PI). Animals were sacrificed at the end of mechanical ventilation period. At the end of the experiment, lung tissue, BAL and serum was collected from all animals. To determine the optimal dose of PI in VILI, the following parameters were measured: BAL total protein measurement (BioRad Protein Assay, BioRad, Hercules, Calif.); lung tissue histology with hematoxylin-eosin (H&E) staining for lung injury scoring; BAL total and differential cell count; Serum and BAL cytokine analysis for IL-18 (R&D Systems, Minneapolis, Minn., USA); lung tissue was collected for future RNA and protein expression studies; blood pressure and heart rate recording (Coda Monitor, Kent Scientific, Torrington, Conn.); and/or animal mortality prior to the end of the experiment.
Rats (N=32) received PERK inhibitor GSK 2606414 (PI) or vehicle control (0.1% Tween 80+0.5% hydroxypropyl-methylcellulose (VC)) via oral gavage 4 hours before the start of mechanical ventilation in 2.5 ml volume bolus. Subsequently, animals were randomized to receive mechanical ventilation, or they were let to breathe spontaneously (N=8/group). For the mechanical ventilation protocol, rats were kept under general anesthesia for the entire procedure. Their breathing, cardiac function and neurological responses were continuously monitored to minimize pain and distress. Induction and maintenance anesthesia was performed with inhaled 2-4% isoflurane. If additional anesthesia was necessary to keep the animal in surgical plane at the time of induction, it was given an intraperitoneal injection of a mixture of ketamine (75-100 mg/kg) and xylazine (5-10 mg/kg). To minimize injectable anesthesia and improve analgesia use, the subcutaneous tissue of the tracheostomy site was injected with 1% lidocaine.

AEC-I monolayers = experiment: Stretch-induced cell death, ethidium homodimer staining; format: cell-based, rat; conditions: stretched monolayers, 1 μM PI pretreatment
Description: To assess the effect of ISR inhibition on stretch-induced cell death, dead to live cell ratio was quantified with triple Ethidium homodimer (dead cells)-Calcinein (live cells) and nuclear (DAPI) stain (Thermo Fisher Scientific). Fluorescent light emission from cells was captured with fluorescent microscopy and quantified in the same fashion as described in the “Mechanical stretch activates ISR and cell death in AEC-I” section. N=30 rats were used to obtain data from N=5 biological replicates/condition for each treatment group. Data was expressed as the number of dead cells per total cells as depicted in FIG. 3G. […]
To measure permeability, the silastic membranes were coated with biotinylated fibronectin and cells were cultured on the apical surface. […] Light emission at 488 nm was measured for monolayers using fluorescent microscopy (Nikon TE300, Melville, N.Y.). […] The emitted fluorescence is proportional to the monolayer damage caused by stretch and is detectable by fluorescent microscopy. […] The maximum pixel intensity in the background of unstretched-untreated monolayers was measured and used as a threshold to exclude unstained regions. The percentage of each image area above the threshold intensity was determined and then divided by the value for the unstretched control group to calculate the normalized area percentage (nArea) of each image. […] Data were expressed as ±SEM. […]

[1] = CPI: spontaneously breathing rats, 30 mg/kg four hours prior to sacrifice
[2] = VPI: rats ventilated 4 hours with 20 ml/kg tidal volume, 30 mg/kg four hours prior to ventilation
[3] = ventilated rats, 30 mg/kg PI oral
[4] = ventilated rats, 30 mg/kg oral gavage

## Cn1cc(-c2ccc3c(c2)CCN3C(=O)Cc2cccc(C(F)(F)F)c2)c2c(N)ncnc21 [PI, 1-[5-(4-Amino-7-methyl-7H-pyrrolo[2,3-d]pyrimidin-5-yl)indolin-1-yl]-2-(3-trifluoromethylphenyl)ethanone]
Rat model of VILI; [1]
  Macrophage cell count: 0.77 ± 0.17 ×10^3 cells/ml BAL
  Neutrophil cell count: 0.003 ± 0.003 ×10^3 cells/ml BAL
  Total cell count: 1.44 ± 0.23 ×10^3 cells/ml BAL
Rat model of VILI; VPI vs V, 30 mg/kg oral gavage
  FITC-labeled albumin permeability index: decreased
Rat model of VILI; [2]
  Macrophage cell count: 1.28 ± 0.26 ×10^3 cells/ml BAL
  Neutrophil cell count: 0.03 ± 0.009 ×10^3 cells/ml BAL
  Total cell count: 1.75 ± 0.14 ×10^3 cells/ml BAL
Rat model of VILI; dose titration 3, 10 and 30 mg/kg, oral gavage 4 hours before ventilation
  dose sufficient to inhibit VILI: 10 mg/kg
Rat model of VILI; dose titration 3-30 mg/kg, experiment partially completed
  alveolocapillary permeability in VILI (FITC-labeled albumin extravasation), effect of increasing dose: gradual effect on reducing alveolocapillary permeability
Rat model of VILI; spontaneously breathing animals, 30 mg/kg
  immunosuppression (BAL cell count): did not result in immunosuppression
Rat model of VILI; [3]
  Ventilation-induced BAL total protein content: significantly reduced
  lung injury score: significantly reduced
Rat model of VILI; [4]
  IL-18 BAL levels: reduced
  serum IL-18 levels: did not affect
AEC-I monolayers
  stretch-induced cell death: decreased
